≈ marks a conversion by molar mass, not a printed value.
Experiments:
[1] = Saturation solubility of ibuprofen in components of the transdermal formulation (without matrix); format: physicochemical; settings: 30° C.
Experimental: Comparative tests were carried out in order to determine the saturation solubility of ibuprofen in various components of the transdermal formulation of the invention in the absence of matrix, namely water, 2-ethylhexyl 2-ethylhexanoate as transcutaneous absorption promoter, referred to hereinbelow as “promoter”, and isopropanol as nonaqueous solvent.
These various components were used alone or as homogeneous mixtures forming a clear solution, and the solubility measurements were performed at 30° C., after 24 hours of magnetic stirring and after filtration through a 0.22 μm filter.

[2] = Preliminary trials on solubility of ibuprofen in various solvents or components; format: physicochemical
Experimental: In the context of the present invention, preliminary trials were carried out directed essentially toward studying the solubility of ibuprofen in various solvents or components.

Q: Which Ibuprofen saturating concentration ([1]; isopropanol 68.21 / promoter 31.79 % m/m, no water, 24 hours) does the source give for `CC(C)Cc1ccc(C(C)C(=O)O)cc1` (centres unmarked) [Ibuprofen] here?
A: 403 mg/mL

Q: What about the Ibuprofen saturating concentration ([1]; isopropanol 89.31 / promoter 10.69 % m/m, no water, 24 hours) of the same molecule?
A: 424 mg/mL

Q: What about the Ibuprofen saturating concentration ([1]; isopropanol 100% m/m, 24 hours magnetic stirring, 0.22 μm filtration) of the same molecule?
A: 441 mg/mL

Q: What about the Ibuprofen saturating concentration ([1]; promoter (2-ethylhexyl 2-ethylhexanoate) 100% m/m, 24 hours magnetic stirring, 0.22 μm filtration) of the same molecule?
A: 192 mg/mL

Q: What about the solubility thermodynamic at 24 h ([1]; thermodynamic from solid, water 100% m/m, 24 hours magnetic stirring, 0.22 μm filtration, read-out: Ibuprofen saturating concentration) of the same molecule?
A: 69 µg/mL (≈ 334 µM)

Q: And the Ibuprofen saturating concentration ([1]; water 4.33 / isopropanol 85 / promoter 10.67 % m/m, 24 hours)?
A: 451 mg/mL

Q: What about the Ibuprofen saturating concentration ([1]; water 4.38 / isopropanol 68.16 / promoter 27.46 % m/m, 24 hours) of the same molecule?
A: 431 mg/mL

Q: What about the Ibuprofen saturating concentration ([1]; water 8.54 / isopropanol 68.23 / promoter 23.23 % m/m, 24 hours) of the same molecule?
A: 436 mg/mL

Q: What about the Ibuprofen saturating concentration ([1]; water 8.59 / isopropanol 80.7 / promoter 10.69 % m/m, 24 hours) of the same molecule?
A: 448 mg/mL

Q: And the solubility in water [2]?
A: entirely water-insoluble

Q: What about the “solubility in fatty acid ester/alcohol mixtures” value ([2]; 2-ethylhexyl 2-ethylhexanoate/ethanol or isopropanol mixtures) of the same molecule?
A: soluble
